Measured values published in patent publication US20140255392A1 (BAYER INTELLECTUAL PROPERTY GMBH, priority 2011, published 2014).

Target: T1, human kinase Mps-1 (Homo sapiens, UniProt P33981)
T1 construct: N-terminally GST-tagged human full length recombinant Mps-1 kinase; GST (N); purchased Invitrogen, Karslruhe, Germany PV4071
T1 sequence (P33981 1-857): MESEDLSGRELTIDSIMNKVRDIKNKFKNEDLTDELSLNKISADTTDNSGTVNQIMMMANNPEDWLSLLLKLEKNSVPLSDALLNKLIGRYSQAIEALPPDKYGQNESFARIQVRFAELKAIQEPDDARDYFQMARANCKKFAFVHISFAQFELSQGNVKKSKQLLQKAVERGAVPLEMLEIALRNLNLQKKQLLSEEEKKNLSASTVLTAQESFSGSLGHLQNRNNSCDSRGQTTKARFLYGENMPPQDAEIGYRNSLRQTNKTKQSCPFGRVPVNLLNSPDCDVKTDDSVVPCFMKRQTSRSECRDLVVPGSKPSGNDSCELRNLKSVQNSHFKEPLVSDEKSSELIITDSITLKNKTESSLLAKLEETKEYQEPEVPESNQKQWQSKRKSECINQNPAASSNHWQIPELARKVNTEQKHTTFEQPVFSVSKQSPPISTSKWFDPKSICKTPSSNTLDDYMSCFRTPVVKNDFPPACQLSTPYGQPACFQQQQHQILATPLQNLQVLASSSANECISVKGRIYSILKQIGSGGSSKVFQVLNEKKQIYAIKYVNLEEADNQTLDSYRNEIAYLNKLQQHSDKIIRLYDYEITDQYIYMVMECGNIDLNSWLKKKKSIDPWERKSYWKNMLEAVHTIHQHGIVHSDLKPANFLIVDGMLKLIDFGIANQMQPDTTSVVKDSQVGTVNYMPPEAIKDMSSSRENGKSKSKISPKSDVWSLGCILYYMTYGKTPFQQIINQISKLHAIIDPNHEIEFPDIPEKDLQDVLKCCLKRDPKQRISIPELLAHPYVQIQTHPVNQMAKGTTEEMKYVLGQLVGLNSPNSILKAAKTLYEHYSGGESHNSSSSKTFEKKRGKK
Assay: Mps-1 kinase assay (TR-FRET)
Type: biochemical
Conditions: N-terminally GST-tagged human full length recombinant Mps-1; 10 μM ATP; 1 μM peptide substrate; 60 min at 22° C.
Procedure, shortened: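 Compounds were tested against recombinant full-length Mps-1 bearing an N-terminal GST tag, about 1 nM final, with a biotinylated amide-capped peptide as substrate. Detection reagents were then bound for 1 h at 22° C and the product read by TR-FRET.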

Compound	IC50
COCCNc1cc(Oc2cccc(F)c2)cn2c(-c3ccc(C(=O)NC4CC4)c(C)c3)cnc12 [Example 169, N-cyclopropyl-4-{6-(3-fluorophenoxy)-8-[(2-methoxyethyl)amino]imidazo[1,2-a]pyridin-3-yl}-2-methylbenzamide]	21.7 nM
COCCNc1cc(Oc2ccccc2C)cn2c(-c3ccc(C(=O)NC4CC4)c(C)c3)cnc12 [Example 170]	176 nM
COCCNc1cc(Oc2ccc(F)c(F)c2)cn2c(-c3ccc(C(=O)NC4CC4)c(C)c3)cnc12 [Example 171, N-cyclopropyl-4-{6-(3,4-difluorophenoxy)-8-[(2-methoxyethyl)amino]imidazo[1,2-a]pyridin-3-yl}-2-methylbenzamide]	115 nM
COCCNc1cc(Oc2cc(F)ccc2C)cn2c(-c3ccc(C(=O)NC4CC4)c(C)c3)cnc12 [Example 172]	77.8 nM
COCCNc1cc(Oc2cccc(F)c2F)cn2c(-c3ccc(C(=O)NC4CC4)c(C)c3)cnc12 [Example 173, N-cyclopropyl-4-{6-(2,3-difluorophenoxy)-8-[(2-methoxyethyl)amino]imidazo[1,2-a]pyridin-3-yl}-2-methylbenzamide]	8.2 nM
COCCNc1cc(C(=O)c2cc(F)ccc2O)cn2c(-c3ccc(C(=O)NC4CC4)c(C)c3)cnc12 [Example 174, N-cyclopropyl-4-{6-(5-fluoro-2-hydroxybenzoyl)-8-[(2-methoxyethyl)amino]imidazo[1,2-a]pyridin-3-yl}-2-methylbenzamide]	816 nM
Cc1cc(-c2cnc3c(NCCC(F)(F)F)cc(Oc4cc(F)ccc4O)cn23)ccc1C(=O)NC1CC1 [Example 175, N-cyclopropyl-4-{6-(5-fluoro-2-hydroxyphenoxy)-8-[(3,3,3-trifluoropropyl)amino]imidazo[1,2-a]pyridin-3-yl}-2-methylbenzamide]	3 nM
Cc1cc(-c2cnc3c(NCCC(F)(F)F)cc(Oc4cccc(F)c4O)cn23)ccc1C(=O)NC1CC1 [Example 176, N-cyclopropyl-4-{6-(3-fluoro-2-hydroxyphenoxy)-8-[(3,3,3-trifluoropropyl)amino]imidazo[1,2-a]pyridin-3-yl}-2-methylbenzamide]	1.8 nM
Cc1cc(-c2cnc3c(NCCC(F)(F)F)cc(Oc4cncc(F)c4)cn23)ccc1C(=O)NC1CC1 [Example 177, N-cyclopropyl-4-{6-[(5-fluoropyridin-3-yl)oxy]-8-[(3,3,3-trifluoropropyl)amino]imidazo[1,2-a]pyridin-3-yl}-2-methylbenzamide]	20.4 nM
COc1ncc(Oc2cc(NCCC(F)(F)F)c3ncc(-c4ccc(C(=O)NC5CC5)c(C)c4)n3c2)cc1F [Example 178, N-cyclopropyl-4-{6-[(5-fluoro-6-methoxypyridin-3-yl)oxy]-8-[(3,3,3-trifluoropropyl)amino]imidazo[1,2-a]pyridin-3-yl}-2-methylbenzamide]	2.2 nM
N-cyclopropyl-4-{8-[(2,2-difluoroethyl)amino]-6-(2,5-difluorophenoxy)imidazo[1,2-a]pyridin-3-yl}-2-methylbenzamide [Example 166]	4.6 nM
tert-butyl {3-[4-(cyclopropylcarbamoyl)-3-methylphenyl]-6-(2-hydroxybenzoyl)imidazo[1,2-a]pyridin-8-yl}(2,2-difluoroethyl)carbamate [Example 168]	279 nM
